Where a name gives a salt, the structure may show the parent alone.
target: T1, leukotriene induced contraction of guinea pig tracheal tissues (LTD4) (Cavia porcellus, UniProt Q2NNR5); assay: leukotriene (LTD4) induced contraction of guinea pig tracheal spiral strips in vitro, leukotriene antagonist activity; type: cell-based, guinea pig (adult male albino Hartley strain); settings: antagonism of LTD4 contraction, guinea pig trachea; EC30 based (30% of carbachol contraction); meclofenamic acid 1 μM; test compound 30 min pretreatment; KB = concentration of test compound/(X-1); 30 min
T1 construct: from tissue; host or cells: guinea pig (adult male albino Hartley strain) tracheal spiral strips
T1 sequence (Q2NNR5 1-340): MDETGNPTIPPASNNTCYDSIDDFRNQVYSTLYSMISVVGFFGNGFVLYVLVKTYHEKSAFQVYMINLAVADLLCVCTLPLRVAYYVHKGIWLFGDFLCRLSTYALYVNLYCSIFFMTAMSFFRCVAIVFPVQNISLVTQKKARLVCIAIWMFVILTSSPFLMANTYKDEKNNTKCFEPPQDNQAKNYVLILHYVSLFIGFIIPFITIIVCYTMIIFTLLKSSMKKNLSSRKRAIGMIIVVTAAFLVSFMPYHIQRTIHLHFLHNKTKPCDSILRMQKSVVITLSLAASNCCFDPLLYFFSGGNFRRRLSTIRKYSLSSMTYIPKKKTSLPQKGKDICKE
Experimental: The leukotriene antagonist activity of the compounds of this invention is measured by the ability of the compounds to inhibit the leukotriene induced contraction of guinea pig tracheal tissues in vitro. The following methodology was employed:
In vitro: Guinea pig (adult male albino Hartley strain) tracheal spiral strips of approximate dimensions 2 to 3 mm cross-sectional width and 3.5 cm length were bathed in modified Krebs buffer in jacketed 10 ml tissue bath and continuously aerated with 95% O2 /5% CO2. The tissues were connected via silk suture to force displacement transducers for recording isometric tension. The tissues were equilibrated for 1 hr., pretreated for 15 minutes with meclofenamic acid (1 μM) to remove intrinsic prostaglandin responses, and then pretreated for an additional 30 minutes with either the test compound or vehicle control. A cumulative concentration-response curve for LTD4 on triplicate tissues was generated by successive increases in the bath concentration of the LTD4. In order to minimize intertissue variability, the contractions elicited by LTD4 were standardized as a percentage of the maximum response obtained to a reference agonist, carbachol […].
Calculations: The averages of the triplicate LTD4 concentration-response curves both in the presence and absence of the test compound were plotted on log graph paper. The concentration of LTD4 needed to elicit 30% of the contraction elicited by carbachol was measured and defined as the EC30. The -log KB value for the test compound was determined by the following equations:
2. KB = concentration of test compound/(X-1)

| In Vitro -Log KB | Structure (SMILES) |
| --- | --- |
| 6.9 | CCCCCCCCCCCC/C=C\C(Sc1nc(C)c(C(=O)O)n1C)C(O)CCC(=O)O (single isomer, unassigned) [Formula (III), R1 ^(a) CH3, R2 --CO2 H, R3 CH3 (first isomer line), 4-Hydroxy-5-(1,4-dimethyl-5-carboxy-2-imidazolylthio)-6(Z)-nonadecenoic acid] |
| 6.8 | CCCCCCCCCCCC/C=C\C(Sc1nc(C)c(C(=O)O)n1C)C(O)CCC(=O)O (single isomer, unassigned) [Formula (III), R1 ^(a) CH3, R2 --CO2 H, R3 CH3 (second isomer line), 4-Hydroxy-5-(1,4-dimethyl-5-carboxy-2-imidazolylthio)-6(Z)-nonadecenoic acid] |

same assay, conditions: antagonism of LTD4 contraction, guinea pig trachea; EC30 based (30% of carbachol contraction); meclofenamic acid 1 μM; test compound 30 min pretreatment; KB = concentration of test compound/(X-1); read-out: In Vitro -Log KB (converted)

| Structure (SMILES) | Kb |
| --- | --- |
| CCCCCCCCCCCC/C=C\[C@H](Sc1nc(C)c(C(=O)O)n1C)[C@H](O)CCC(=O)O (relative stereo) [4-Hydroxy-5-(1,4-dimethyl-5-carboxy-2-imidazolylthio)-6(Z)-nonadecenoic acid] | 126 nM |
| CCCCCCCCCCCC/C=C\[C@H](Sc1nc(C)c(CC(N)=O)n1C)[C@H](O)CCC(=O)O (relative stereo) [4-Hydroxy-5-(5-Aminocarbonylmethyl-1,4-dimethyl-2-imidazolylthio)-6(Z)-nonadecenoic Acid] | 631 nM |
| CCCCCCCCCCCC/C=C\[C@H](Sc1nc(CCC)c(C(=O)O)n1C)[C@H](O)CCC(=O)O (relative stereo) [4-Hydroxy-5-(5-carboxy-1-methyl-4-propyl-2-imidazolylthio)-6(Z)-nonadecenoic Acid] | 316 nM |
| CCCCCCCCCCCC/C=C\[C@H](Sc1nc(CC)c(C(=O)O)n1C)[C@H](O)CCC(=O)O (relative stereo) [4-Hydroxy-5-(5-carboxy-4-ethyl-1-methyl-2-imidazolylthio)-6-(Z)-nonadecenoic Acid] | 200 nM |
| CCCCCCCCCCCC/C=C\[C@H](Sc1nc(C(C)C)c(C(=O)O)n1C)[C@H](O)CCC(=O)O (relative stereo) [4-Hydroxy-5-(5-carboxy-4-isopropyl-1-methyl-2-imidazolylthio)-6(Z)-nonadecenoic Acid] | 1260 nM |
| CCCCCCCCCCCC/C=C\[C@H](Sc1nc(C)c(CC(=O)O)n1C)[C@H](O)CCC(=O)O (relative stereo) [4-Hydroxy-5-(5-carboxymethyl-1,4-dimethyl-2-imidazolylthio)-6(Z)-nonadecenoic Acid] | 398 nM |
| CCCCCCCCCCCC/C=C\[C@H](Sc1nc(C)c(CCC(=O)O)n1C)[C@H](O)CCC(=O)O (relative stereo) [4-Hydroxy-5-[5-(2-carboxyethyl)-1,4-dimethyl-2-imidazolylthio]-6(Z)-nonadecenoic Acid] | 1260 nM |
| CCCCCCCCCCCC/C=C\[C@H](Sc1nc(C(=O)O)c[nH]1)[C@H](O)CCC(=O)O (relative stereo) [Formula (III), R1 H, R2 --CO2 H, R3 H, 4-Hydroxy-5-[4(5)-carboxy-2-imidazolylthio]-6(Z)-nonadecenoate acid] | 2000 nM |
| CCCCCCCCCCCCC#CC(Sc1nc(C)c(C(=O)O)n1C)C(O)CCC(=O)O (stereo not drawn) [4-Hydroxy-5-(1,4-dimethyl-5-carboxy-2-imidazolylthio)-6-nonadecynoic acid] | 1580 nM |
| CCCCCCCCCCCC/C=C\C(CCCC(=O)O)Sc1ncc(C(=O)O)n1C (stereo not drawn) [5-(1-methyl-5-carboxy-2-imidazolylthio)-6(Z)-nonadecenoic acid] | 316 nM |

Further lines, results first:

| Kb | Structure (SMILES) |
| --- | --- |
| 794 nM | CCCCCCCCCCCC/C=C\[C@H](Sc1nc(CC(=O)O)cn1C)[C@H](O)CCC(=O)O (relative stereo) [4-Hydroxy-5-(1-methyl-4-carboxymethyl-2-imidazolylthio)-6(Z)-nonadecenoic acid] |
| 5010 nM | C=CCn1ccnc1S[C@@H](/C=C\CCCCCCCCCCCC)[C@H](O)CCC(=O)O (relative stereo) [Formula (III), R1 CH2 =CHCH2, R2 H, R3 H, 4-Hydroxy-5-(1-allyl-2-imidazolylthio)-6(Z)-nonadecenoic acid] |
| 5010 nM | CCCCCCCCCCCC/C=C\[C@H](Sc1nccn1CC)[C@H](O)CCC(=O)O (relative stereo) [Formula (III), R1 CH3 CH2, R2 H, R3 H, 4-Hydroxy-5-(1-ethyl-2-imidazolylthio)-6(Z)-nonadecenoic acid, sodium salt] |
| 158 nM | CCCCCCCCCCCC/C=C\[C@H](Sc1ncc(C(=O)O)n1C)[C@H](O)CCC(=O)O (relative stereo) [Formula (III), R1 CH3, R2 --CO2 H, R3 H, 4-Hydroxy-5-(1-methyl-5-carboxy-2-imidazolylthio)-6(Z)-nonadecenoic acid] |
| 3980 nM | CCCCCCCCCCCC/C=C\[C@H](Sc1ncc(C(N)=O)n1C)[C@H](O)CCC(=O)O (relative stereo) [Formula (III), R1 CH3, R2 --CONH2, R3 H, 4-Hydroxy-5-(1-methyl-5-carboxamido-2-imidazolylthio)-6(Z)-nonadecenoic acid] |
| 2510 nM | CCCCCCCCCCCC/C=C\[C@H](Sc1nc(C)c(C)n1C)[C@H](O)CCC(=O)O (relative stereo) [Formula (III), R1 CH3, R2 CH3, R3 CH3, 4-Hydroxy-5-(1,4,5-trimethyl-2-imidazolylthio)-6(Z)-nonadecenoic acid] |
| 1260 nM | CCCCCCCCCCCC/C=C\[C@H](Sc1nccn1C)[C@H](O)CCC(=O)O (relative stereo) [Formula (III), R1 CH3, R2 H, R3 H, 4-Hydroxy-5-(1-methyl-2-imidazolylthio)-6(Z)-nonadecenoic acid] |
| 1000 nM | CCCCCCCCCCCC/C=C\[C@H](Sc1nccn1C)[C@H](O)CCCC(=O)O (relative stereo) [Formula (IV), R1 CH3, R2 H, R3 H, 5-Hydroxy-6-(1-methyl-2-imidazolylthio)-7(Z)-eicosenoic acid] |
| 200 nM | CCCCCCCCCCCC/C=C\C(Sc1ncn(C)c1C(=O)O)C(O)CCC(=O)O (stereo not drawn) [Formula (V), R4 CH3, R5 H, R6 --CO2 H, 4-Hydroxy-5-(1-methyl-5-carboxy-4-imidazolylthio)-6(Z)-nonadecenoic acid] |
| 2000 nM | CCCCCCCCCCCC/C=C\C(Sc1cn(C)cn1)C(O)CCC(=O)O (stereo not drawn) [Formula (V), R4 ^(b) CH3, R5 H, R6 H, 4-Hydroxy-5-(1-methyl-4-imidazolylthio)-6(Z)-nonadecenoic acid, sodium salt] |

same assay, conditions: method as for the table (LTD4, guinea pig trachea); read-out: -log KB value (converted)

| Kb | Structure (SMILES) |
| --- | --- |
| 31.6 nM | CC(C)=CCCCCCCCCC/C=C\C(Sc1nc(C)c(C(=O)O)n1C)C(O)CCC(=O)O (stereo not drawn) [Example 25, 4-Hydroxy-5-(5-carboxy-1,4-dimethyl-2-imidazolylthio)-18-methyl-6(Z),17-nonadecadienoic Acid] |
| 251 nM | Cc1nc(SC(/C=C\CCCCCCCCc2ccccc2)C(O)CCC(=O)O)n(C)c1C(=O)O (stereo not drawn) [Example 26, 4-Hydroxy-5-(5-carboxy-1,4-dimethyl-2-imidazolylthio)-15-phenyl-6(Z)-pentadecenoic Acid] |

Reference: patent US4769386A, “Imidazolylthioalkenoic acids and -alkenols and leukotriene antagonistic composition containing them” (Smithkline Beckman Corporation, priority 1986, dated 1988)
